# Experimental data reported in article PMC9919437 (Molecules, 2023).
# Like-named read-outs stand apart in the source and are kept apart here.
# How the values were obtained:
# [1] = biological target: T1, BC2L-C-Nt (N-terminal lectin domain of BC2L-C) (Burkholderia cenocepacia, UniProt B4EH86); assay: biochemical; format: binding
# [2] = biological target: T1, BC2L-C-Nt (N-terminal lectin domain of BC2L-C); conditions: cited from earlier work
# BC2L-C-Nt = assay: STD-NMR competition experiment with α-methyl fucoside; format: binding, Burkholderia cenocepacia; conditions: 1 mol equiv α-methyl fucoside; for 4 aromatic protons only
# Experimental: A great deal of additional information can be gained from STD competition assays, where a known binder is added to a protein–ligand mixture with the aim of displacing the ligand under study and confirm that they are both competing for the same binding site. […] The same competition experiment was performed for 4 in the presence of α-methyl fucoside. The reduction in STD intensity after the addition of the monosaccharide can be evaluated only for the aromatic protons, since the signals of galactose and methyl fucoside overlap in the region 3.8–3.6 ppm, and can be estimated around 60% (Table S2).
# NMR experiments were performed on 400 MHz Bruker Avance III and 600 MHz Bruker Avance spectrometers at 298 K in deuterated or aqueous phosphate buffer at pH 7.4. When required, water suppression was achieved by excitation sculpting sequence from standard Bruker library. STD NMR experiments were performed using WATERGATE 3-9-19 pulse sequence for water suppression. […] Intensities of all STD effects (absolute STD) were calculated by division through integrals over the respective signals in STD reference spectra. The different signal intensities of the individual protons are best analyzed from the integral values in the reference and STD spectra, respectively. […]
# T1 sequence (B4EH86 1-132 limits assumed): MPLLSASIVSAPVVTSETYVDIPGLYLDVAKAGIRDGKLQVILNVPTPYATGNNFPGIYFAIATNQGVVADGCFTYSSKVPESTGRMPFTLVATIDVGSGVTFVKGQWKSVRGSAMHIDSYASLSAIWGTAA
smiles,measurement,setting,value
"CC(=O)N[C@H]1[C@H](O[C@H]2[C@@H](O)[C@@H](CO)OC(O)[C@@H]2O)O[C@H](CO)[C@@H](O)[C@@H]1O[C@@H]1O[C@H](CO)[C@H](O)[C@H](O)[C@H]1O[C@@H]1O[C@@H](C)[C@@H](O)[C@@H](O)[C@@H]1O (some centres unmarked) [H-type 1 tetrasaccharide, Fucα1-2Galβ1-3GlcNAcβ1-3Gal, reference compound]",n (stoichiometry),[1],0.81
same,Kd,"[1]; pH 7, read-out: KD",56 ± 4.5 µM
C[C@@H]1O[C@H](C#Cc2ccc(C(C)(C)CN)cc2)[C@@H](O)[C@H](O)[C@@H]1O [compound 1],Kd,[2],290 µM
C[C@@H]1O[C@H](NC(=O)c2ccc(-c3cccc(CN)c3)o2)[C@@H](O)[C@H](O)[C@@H]1O [compound 3],times less potent than the H-type 1 tetrasaccharide,[1],3
same,decrease of STD signal of the ligand after addition of α-methyl fucoside,BC2L-C-Nt,20–26%
NCc1cccc(-c2ccc(C(=O)NC3OC(CO)C(O)C(O)C3O)o2)c1 (centres unmarked) [compound 4],factor by which activity is lower than that of 3,[1],2.5
same,Kd,[1]; KD,390 µM
same,decrease of STD signal of the ligand after addition of α-methyl fucoside,BC2L-C-Nt,around 60%
